Results published in patent US10562912B2 (C&C Research Laboratories, priority 2013, dated 2020).

Experiments:
Format in all cases: cell-based
[1] = system: LNCaP; assay: Cell growth inhibition assay, prostate cancer cell line LNCaP (medium with 10 ng/mL IL-6); conditions: Homo sapiens, medium supplemented with 10 ng/mL of IL-6, 10,000 cells/well
Procedure: (§1) The inhibitory effects of the compounds of the present invention against the growth of cancer cells were evaluated as shown below. The cancer cell lines including stomach cancer cell line (AGS), breast cancer cell lines (MDA-MB-231, MDA-MB-468, and BT-549), prostate cancer cell lines (LNCaP and DU-145), colon cancer cell line (HCT116), ovarian cancer cell line (SW626), liver cancer cell line (Hep3B), kidney cancer cell line (ACHN), lung cancer cell line (NCI-H23) and blood cancer cell lines (HEL92.1.7 and U266) were cultured under the protocol provided by each supplier. A medium supplemented with 10 ng/mL of IL-6 was used for LNCaP, a prostate cancer cell line, when treated with a drug. Each type of cells to be used in experiments were sub-cultured in a 96-well plate by counting the exact number of cells using Tali™ Image-based Cytometer (Life Technologies). In a 96-well plate, AGS, HCT116, and DU-145 were employed with 3,000 cells/well; NCI-H23, SW626, Hep3B, ACHN, BT-549, MDA-MB-231, HEL92.1.7, and U266 were employed with 5,000 cells/well; and LNCaP and MDA-MB-468 were employed with 10,000 cells/well. The cells were treated with the compounds listed in Examples which were diluted in various concentrations. Upon completion of the compounds treatment, AGS, HCT116, SW626, DU145, NCI-H23, Hep3B, ACHN, BT-549, LNCaP, HEL92.1.7, and U266 cells were cultured at 37° C. under 5% CO2 for from 72 to 96 hours, and MDA-MB-231 and MDA-MB-468 cells were cultured at 37° C. in air for from 72 to 96 hours. Subsequently, the cells were observed under microscope and drug precipitation and particular findings were investigated and recorded. And then, the 96-well plate was placed at room temperature for 30 minutes, added with 20 μL/well of CellTiter-Glo solution (Cat No. G7573, Promega) and shaken for 10 minutes, followed by being subjected to the measurement using PHERAstar™ microplate reader (BMG LABTECH) according to the supplier's general luminometer protocol. Wells where only culture liquid added without cell plating were used as a negative control, whereas wells where culture liquid containing 0.1% DMSO instead of the compounds listed in Examples were used as a positive control.

[2] = target: T1, STAT3 (Homo sapiens, UniProt P40763); assay: STAT3 reporter gene assay (luciferase), LNCaP stable cell line (pSTAT3-TA-luc), IL-6 stimulation
T1 construct: plasmid pSTAT3-TA-luc), which contains a stably operating STAT3 promoter; endogenous in cells
Procedure: 1-1) Experiment on the Inhibition of STAT3 Activity
A human prostate cancer cell line (LNCaP stable cell line; plasmid pSTAT3-TA-luc), which contains a stably operating STAT3 promoter, was cultured in RPMI1640 medium (Cat No. 11875, Life Technologies) containing 10% fetal bovine serum (FBS) (Cat No. SH30396, Thermo Scientific) and 150 μg/mL G-418 solution (Cat No. 04 727 894 001, Roche). The reporter gene assay using LNCaP stable cell line was performed in RPMI1640 medium containing 3% DCC-FBS without G-418 solution. LNCaP stable cells were plated in two (2) white 96-well plates with 30,000 cells/50 μL in each well. The cells were cultured at 37° C., under 5% CO2 for 24 hours, and then treated with the compounds listed in Examples which were diluted in various concentrations. Subsequently, IL-6 was added to each well with a final concentration of 10 ng/mL. Upon completion of the treatment with the compounds and IL-6, the cells were cultured at 37° C., under 5% CO2 for from 24 to 48 hours. The plates were observed under microscope and drug precipitation and particular findings were investigated and recorded.
The luciferase assay and the cell viability assay were performed respectively with one of the two plates. For the luciferase assay, the liquid media in the 96-well plate was removed, and then, 20 μL of passive cell lysis buffer was added to each well. After shaking the plate for 30 minutes, luciferase activities of each well were measured in a PHERAstar™ microplate reader (BMG LABTECH) using a luciferase assay system (Cat No. E1501, Promega). For the cell viability assay, the 96-well plate was placed at room temperature for 30 minutes, added with 20 μL/well of CellTiter-Glo solution (Cat No. G7573, Promega), and shaken for 10 minutes in order to measure cytotoxicity caused by the compounds listed in Examples with a PHERAstar™ microplate reader (BMG LABTECH). Wells without 0.1% DMSO and stimulation were used as a negative control and wells with 0.1% DMSO and stimulation were used as a positive control.

[3] = system: DU-145; assay: Cell growth inhibition assay, prostate cancer cell line DU-145; conditions: Homo sapiens, DU-145 prostate cancer cell line
Procedure: as §1

T1 sequence (P40763 whole entry): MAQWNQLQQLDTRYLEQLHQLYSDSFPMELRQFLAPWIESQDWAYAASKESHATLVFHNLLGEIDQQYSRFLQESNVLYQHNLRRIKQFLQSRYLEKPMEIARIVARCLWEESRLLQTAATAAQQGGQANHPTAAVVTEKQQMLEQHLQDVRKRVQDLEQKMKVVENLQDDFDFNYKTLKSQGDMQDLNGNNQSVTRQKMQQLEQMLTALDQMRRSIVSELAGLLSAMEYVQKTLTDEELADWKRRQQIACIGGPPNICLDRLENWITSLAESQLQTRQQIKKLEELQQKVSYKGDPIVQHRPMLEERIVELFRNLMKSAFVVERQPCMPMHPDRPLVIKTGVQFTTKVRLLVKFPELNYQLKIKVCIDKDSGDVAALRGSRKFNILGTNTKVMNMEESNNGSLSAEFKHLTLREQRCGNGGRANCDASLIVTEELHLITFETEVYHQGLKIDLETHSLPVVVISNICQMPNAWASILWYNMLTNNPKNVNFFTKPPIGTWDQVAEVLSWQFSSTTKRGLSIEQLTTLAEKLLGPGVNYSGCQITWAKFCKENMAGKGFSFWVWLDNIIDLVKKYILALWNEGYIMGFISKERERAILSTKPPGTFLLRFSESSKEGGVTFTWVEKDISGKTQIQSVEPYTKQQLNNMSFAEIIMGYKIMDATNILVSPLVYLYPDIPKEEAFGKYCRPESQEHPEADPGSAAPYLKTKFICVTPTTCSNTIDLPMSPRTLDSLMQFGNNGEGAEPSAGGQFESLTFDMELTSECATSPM

Structure (SMILES)	IC50 [1] [µM]	IC50 [2] [µM]	IC50 [3] [µM]
Cc1cc(OC(C)C)cc(C(C)(C)c2cc(Cl)cc(NC(=O)c3cc4c(Br)c(NS(C)(=O)=O)ccc4s3)c2)c1 [Example 488, 4-bromo-N-(3-chloro-5-(2-(3-isopropoxy-5-methylphenyl)propan-2-yl)phenyl)-5-(methylsulfonamido)benzo[b]thiophene-2-carboxamide]	2.5	0.35	1.1
CS(=O)(=O)Nc1ccc2sc(C(=O)Nc3cc(Cl)cc(Oc4ccc(F)c(Cl)c4)c3)cc2c1 [Example 461, N-(3-chloro-5-(3-chloro-4-fluorophenoxy)phenyl)-5-(methylsulfonamido)benzo[b]thiophene-2-carboxamide]	0.24	0.14	0.11
CC(C)(c1cccc(Cn2ccnc2)c1)c1cc(Br)cc(NC(=O)c2cc3cc(NS(C)(=O)=O)ccc3s2)c1 [Example 120, N-(3-(2-(3-((1H-imidazol-1-yl)methyl)phenyl)propan-2-yl)-5-bromophenyl)-5-(methylsulfonamido)benzo[b]thiophene-2-carboxamide]	3.6	0.66	2.2
CC(C)Oc1cc(CN2CCNCC2)cc(C(C)(C)c2cc(Br)cc(NC(=O)c3cc4cc(NS(C)(=O)=O)ccc4s3)c2)c1 [Example 124, N-(3-bromo-5-(2-(3-isopropoxy-5-(piperazin-1-ylmethyl)phenyl)propan-2-yl)phenyl)-5-(methylsulfonamido)benzo[b]thiophene-2-carboxamide]	6.5	4	2.1
CS(=O)(=O)Nc1ccc2sc(C(=O)Nc3cc(Cl)cc(C4(c5ccc(Cl)cc5)CC4)c3)cc2c1 [Example 432, N-(3-chloro-5-(1-(4-chlorophenyl)cyclopropyl)phenyl)-5-(methylsulfonamido)benzo[b]thiophene-2-carboxamide]	0.073	0.049	0.06
CS(=O)(=O)Nc1ccc2sc(C(=O)Nc3cc(Cl)cc(Oc4ccc(OC(F)(F)F)cc4)c3)cc2c1 [Example 454, N-(3-chloro-5-(4-(trifluoromethoxy)phenoxy)phenyl)-5-(methylsulfonamido)benzo[b]thiophene-2-carboxamide]	0.83	0.12	0.059
CC(C)Oc1cc(OC(F)(F)F)cc(C(C)(C)c2cc(Cl)cc(NC(=O)c3cc4cc(NS(C)(=O)=O)ccc4[s+]3[O-])c2)c1 (stereo not drawn) [Example 223, N-(3-chloro-5-(2-(3-isopropoxy-5-(trifluoromethoxy)phenyl)propan-2-yl)phenyl)-5-(methylsulfonamido)benzo[b]thiophene-2-carboxamide 1-oxide]	0.17	0.24	0.005
CS(=O)(=O)Nc1ccc2sc(C(=O)Nc3cc(-c4ccc(F)cc4F)cc(Cl)n3)cc2c1 [Example 337, N-(6-chloro-4-(2,4-difluorophenyl)pyridin-2-yl)-5-(methylsulfonamido)benzo[b]thiophene-2-carboxamide]	0.94	0.27	0.43
CS(=O)(=O)Nc1cc2cc(C(=O)Nc3cc(Cl)cc(Oc4cncs4)c3)sc2cc1Cl [Example 472, 6-chloro-N-(3-chloro-5-(thiazol-5-yloxy)phenyl)-5-(methylsulfonamido)benzo[b]thiophene-2-carboxamide]	0.37	0.1	0.13
CS(=O)(=O)Nc1cc2cc(C(=O)Nc3cc(Cl)cc(Oc4nccs4)c3)sc2cc1Cl [Example 471, 6-chloro-N-(3-chloro-5-(thiazol-2-yloxy)phenyl)-5-(methylsulfonamido)benzo[b]thiophene-2-carboxamide]	0.11	0.075	0.049
CS(=O)(=O)Nc1ccc2sc(C(=O)Nc3cc(Cl)cc(-c4ccc(F)cc4F)c3)c(O)c2c1 [Example 335, N-(5-chloro-2′,4′-difluoro-[1,1′-biphenyl]-3-yl)-3-hydroxy-5-(methylsulfonamido)benzo[b]thiophene-2-carboxamide]	> 1.1	5.7	> 1.1
CC(C)Oc1cc(OC(F)(F)F)cc(C(C)(C)c2cc(Cl)cc(NC(=O)c3cc4cnc(NS(C)(=O)=O)cc4[nH]3)c2)c1 [Example 101, N-(3-chloro-5-(2-(3-isopropoxy-5-(trifluoromethoxy)phenyl)propan-2-yl)phenyl)-6-(methylsulfonamido)-1H-pyrrolo[3,2-c]pyridine-2-carboxamide]	1.1	0.28	0.44

The next molecules have a lower IC50 [1] than those just listed; values first:

IC50 [1] [µM]	IC50 [2] [µM]	IC50 [3] [µM]	Structure (SMILES)
0.01	0.013	0.006	CS(=O)(=O)Nc1cc2cc(C(=O)Nc3cc(Cl)cc(C4(c5ccc(Cl)cc5)CC4)c3)sc2cc1Cl [Example 433, 6-chloro-N-(3-chloro-5-(1-(4-chlorophenyl)cyclopropyl)phenyl)-5-(methylsulfonamido)benzo[b]thiophene-2-carboxamide]
0.039	0.1	0.023	CC(C)(c1cc(Cl)cc(NC(=O)c2cc3cc(NS(C)(=O)=O)c(Cl)cc3s2)c1)c1ccc(C#N)s1 [Example 186, 6-chloro-N-(3-chloro-5-(2-(5-cyanothiophen-2-yl)propan-2-yl)phenyl)-5-(methylsulfonamido)benzo[b]thiophene-2-carboxamide]
0.016	0.007	0.005	CC(C)(c1cc(Cl)cc(NC(=O)c2cc3cc(NS(C)(=O)=O)c(Cl)cc3s2)c1)c1ccc(Cl)s1 [Example 175, 6-chloro-N-(3-chloro-5-(2-(5-chlorothiophen-2-yl)propan-2-yl)phenyl)-5-(methylsulfonamido)benzo[b]thiophene-2-carboxamide]
0.036	0.059	0.025	Cc1ccc(Oc2cc(Cl)cc(NC(=O)c3cc4cc(NS(C)(=O)=O)c(Cl)cc4s3)c2)s1 [Example 487, 6-chloro-N-(3-chloro-5-((5-methylthiophen-2-yl)oxy)phenyl)-5-(methylsulfonamido)benzo[b]thiophene-2-carboxamide]
0.061	0.02	0.014	CC#Cc1cc(OC(F)(F)F)cc(C(C)(C)c2cc(Cl)cc(NC(=O)c3cc4cc(NS(C)(=O)=O)ccc4s3)c2)c1 [Example 114, N-(3-chloro-5-(2-(3-(prop-1-yn-1-yl)-5-(trifluoromethoxy)phenyl)propan-2-yl)phenyl)-5-(methylsulfonamido)benzo[b]thiophene-2-carboxamide]
0.037	0.021	0.021	COc1cc(F)cc(Oc2cc(Cl)cc(NC(=O)c3cc4cc(NS(C)(=O)=O)c(Cl)cc4s3)c2)c1 [Example 484, 6-chloro-N-(3-chloro-5-(3-fluoro-5-methoxyphenoxy)phenyl)-5-(methylsulfonamido)benzo[b]thiophene-2-carboxamide]
